# Laboratory results as given in patent US11571485B2, “Peptides and antibodies for detecting changes in alzheimer's disease brain and methods of use thereof” (Sanford Burnham Prebys Medical Discovery Institute, priority 2016, dated 2023).
# Tests used:
# [1] = test system: Tg2576 mouse brain; experiment: In vivo homing of FAM-DAG in Tg2576 mice
# Procedure: All animal experiments were conducted under an approved protocol of the Institutional Animal Care and Use Committee of Sanford Burnham Prebys Medical Discovery Institute. The following transgenic mouse models were used for peptide homing studies—hAPP-J20 ([…], Nature genetics 1, 345-347 (1992)), Tg2576 (Jacobsen et al., Proc Natl Acad Sci USA 103, 5161-5166 (2006)), and mTHY-1-α-synuclein model (Chesselet et al., Neurotherapeutics 9, 297-314 (2012)). The P13 glioblastoma model is a patient-derived orthotopic xenograft model (Bougnaud et al., Oncotarget, (2016)). Spheroids were cultured as described previously (Bjerkvig et al., J Neurosurg 72, 463-475 (1990)). After two weeks in culture, spheroids (volume 2.5 μl) were stereotactically implanted into the brains of nude mice. Mice were used approximately 6 weeks after tumors were induced, when mice started presenting neurological symptoms. The acute brain injury model was setup as previously described (Mann et al., Nature communications 7, 11980 (2016)). Briefly, 8 to 10 week-old male BL6 mice were anaesthetized with 4% isoflurane in 70% N2O and 30% O2, and a 5-mm craniotomy was performed using a portable drill and a trephine over the right parietotemporal cortex using a stereotactic frame. […]
# [2] = test system: human iPS cell-derived endothelial cells (ECs) from an AD patient; experiment: AgNP binding to hiPSC-derived brain endothelial cells; type: cell-based
# Source text: Human iPS cell-derived from an AD patient and from a normal individual were differentiated into endothelial cells and the cultured cells were used in an overlay assay with DAG-coated and control AgNP.
# The details of human induced pluripotent stem cells (hiPSCs) derived from Alzheimer disease patients with APP duplication, and non-demented control individuals, are described previously (Israel et al., Nature 482, 216-220 (2012)). These hiPSCs were extensively characterized and have been established as an excellent human model for AD. An additional AD hiPSC line generated from dermal fibroblasts from an individual harboring a Presenilinl (PSEN1) mutation (Coriell Institute, Cat #AG06840) was used to further validate the results from the APP lines. hiPSCs were routinely maintained on mouse embryonic fibroblast as described before (Lin et al., Nat Methods 6, 805-808 (2009); Talantova et al., Proc Natl Acad Sci USA 110, E2518-2527 (2013)). Brain microvascular endothelial cells differentiation of hiPSCs was performed using a previously described protocol (Lippmann et al., Nature biotechnology 30, 783-791 (2012), with minor modifications. Briefly, feeder-free cultures of hiPSCs were allowed to spontaneously differentiate in the absence of bFGF for 5-7 days, and then transferred to Endothelial cell (EC) medium composed of human Endothelial Serum-Free Medium™ (Invitrogen) supplemented with 20 ng/ml bFGF and 1% platelet-poor plasma-derived bovine serum (PDS; Biomedical Technologies). After 1-2 days the cells were dissociated with dispase (2 mg/ml) and were plated on 12 well plates coated with a mixture of collagen IV (400 μg/ml) and fibronectin (100 μg/ml). Cells were then cultured in EC medium until they reached confluence, after which they were split and expanded to near 100% purity. BBB-type EC identity was confirmed by flow cytometry or double immunoreactivity to the hallmark efflux transporter p-glycoprotein and other EC markers (CD31, GLUT-1, PECAM, Occludin, and Claudin-5). Furthermore, the capability of these cells to make functional tight junctions and polarized efflux activity was validated using a dual chamber efflux transport assay as described before.
# Cell binding experiments on U251 cells and hiPSCs were with done using peptide conjugated AgNP. U251 cells were cultured in a 96-well plate. The cells were blocked with 200 μl of 10% FCS in HBSS (Hanks' Balanced Salt Solution from Gibco) for 30 min at 37° C. Following that, DAG-AgNPs (0.5 nM concentration diluted in HBSS) alone or in the presence of free non-labeled peptide (200 μM) were incubated on the cells for 1 hour at 37° C. After washing the unbound AgNP with HBSS three times, the plates were imaged with fluorescent microscopy by looking at intrinsic emission from the FAM tag on the peptide. hiPSCs were cultured in 48 well plate and similar protocol as described above was followed, with the exception that AgNP concentration for incubation was kept at 0.15 nM. Nanoparticle binding was quantified from fluorescence micrographs using ImageJ™ software.
# [3] = molecular target: T1, recombinant human CTGF (Homo sapiens, UniProt P29279); experiment: ELISA binding to recombinant CTGF
# T1 construct: purchased Affymetrix 14-8503-80
# T1 sequence (P29279 253-349 limits assumed): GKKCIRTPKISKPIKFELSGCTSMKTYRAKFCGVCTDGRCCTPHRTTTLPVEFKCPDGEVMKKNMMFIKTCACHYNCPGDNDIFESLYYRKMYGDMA
# Procedure: FIG. 10 is a graphical representation relating to identification of a receptor for DAG. DAG binds to recombinant CTGF. FAM-DAG was incubated on ELISA plate coated with recombinant human CTGF at two different peptide concentrations of the FAM peptide alone (light gray bars), or in the presence of non-labeled DAG (0.5 mM) (dark gray bars). […] DAG was also shown to colocalize with CTGF. FAM-DAG was intravenously injected in 9-month-old hAPP-J20 and WT mice, allowed to circulate for 30 minutes, after which mice were perfused, and the brains were fixed, sectioned and stained for FAM (green) and CTGF (red).
# Human CTGF recombinant protein (Affymetrix Cat #14-8503-80) was incubated on Nunc low-binding plates at concentration of 10 μg/ml for overnight at 4° C. Excess protein in the plates was removed by washing with PBS-T (PBS with 0.005% Tween 20). Plates were blocked with 200 μl of 3% non-fat milk in PBS for 1 hour at room temperature and washed with PBS-T once. Biotin-labeled peptide (at different concentrations) in PBS was added to the plate for 2 hours at 37° C. For peptide inhibition, non-labeled DAG peptide (0.5 mM) was added 30 minutes prior to addition of labeled peptide. The plates were washed with 100 μl PBS-T for three times to remove excess peptide. The bound peptide was detected by incubating with 100 μl of Vectastain ABC™ reagent (Vector labs, Burlingame, Calif.) for 30 minutes. The plate was washed with 100 μl PBS-T three times. Next, 100 μl of o-phenylenediamine dihydrochloride (OPD) silver and gold substrate (Sigma-Aldrich) was added to the wells and incubated at room temperature until visible color was observed (˜30 min). Adding 50 μl of 1 M H2SO4 stopped the reaction and the plate was read at 495 nm (FlexStation™ 3 Reader, Molecular Devices, Sunnyvale, Calif., USA).
# [4] = molecular target: albumin (BSA) (Bos taurus, UniProt P02769); experiment: ELISA binding to control protein
# Sequence of albumin (BSA) (P02769 25-607): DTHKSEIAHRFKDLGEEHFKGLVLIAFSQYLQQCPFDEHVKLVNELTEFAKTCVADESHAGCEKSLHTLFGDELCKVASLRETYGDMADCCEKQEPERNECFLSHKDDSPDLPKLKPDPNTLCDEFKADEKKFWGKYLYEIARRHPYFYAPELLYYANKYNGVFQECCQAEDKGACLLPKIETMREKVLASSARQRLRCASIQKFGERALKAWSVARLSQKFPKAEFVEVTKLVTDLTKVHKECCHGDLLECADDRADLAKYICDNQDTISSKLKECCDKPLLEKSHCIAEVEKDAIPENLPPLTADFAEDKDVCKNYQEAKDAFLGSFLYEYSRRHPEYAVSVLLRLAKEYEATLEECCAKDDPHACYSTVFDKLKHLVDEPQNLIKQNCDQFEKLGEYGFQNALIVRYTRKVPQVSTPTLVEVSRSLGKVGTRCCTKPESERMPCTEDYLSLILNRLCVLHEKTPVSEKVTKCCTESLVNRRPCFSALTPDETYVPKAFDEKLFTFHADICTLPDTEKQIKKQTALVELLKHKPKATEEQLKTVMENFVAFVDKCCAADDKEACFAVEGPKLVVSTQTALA
sequence,measurement,setting,value
CDAGRKQKC,Colocalization in Tg2576 brain sections,"[1]; DAG-injected Tg2576 mice, immunostaining",significant colocalization of DAG with Aβ and CD31
same,Homing in Tg2576 model,[1]; i.v. FAM-DAG,detected both in the hippocampus and in the cortex
same,Binding to AD patient iPS cell-derived endothelial cells,[2]; AD patient vs normal donor cells,recognizes endothelial cells differentiated from AD iPS cells and not cells prepared similarly from a control individual
same,Binding to hiPSC-derived BMECs from non-demented individual,[2]; control cells,did not bind to hiPSC-derived BMECs from a non-demented individual
same,Binding to CTGF-coated plates,[3]; ELISA,bound to CTGF-coated plates in a dose-dependent manner
same,Inhibition of CTGF binding by unlabeled DAG,[3]; non-labeled DAG 0.5 mM,inhibited in the presence of an excess of unlabeled DAG
same,Binding to control protein (BSA),[4],only minimal binding to a control protein (BSA)
